Reference: patent publication US12227495B2, “Herbicidal compounds” (SYNGENTA CROP PROTECTION AG, priority 2018, dated 2025)

Tests used:
Format in all cases: in vivo
Conditions in all cases: evaluated after 13 days
[1] = tested on: Ipomoea hederacea (IPOHE); experiment: Pre-emergence herbicide test, glasshouse, percentage damage
Description: (§1) Seeds of a variety of test species are sown in standard soil in pots (Lolium perenne (LOLPE), Solanum nigrum (SOLNI), Amaranthus retoflexus (AMARE), Setaria faberi (SETFA), Echinochloa crus-galli (ECHCG), Ipomoea hederacea (IPOHE)). After cultivation for one day (pre-emergence) or after 8 days cultivation (post-emergence) under controlled conditions in a glasshouse (at 24/16° C., day/night; 14 hours light; 65% humidity), the plants are sprayed with an aqueous spray solution derived from the formulation of the technical active ingredient in acetone/water (50:50) solution containing 0.5% Tween 20 (polyoxyethelyene sorbitan monolaurate, CAS RN 9005-64-5). Compounds are applied at 500 g/ha unless otherwise stated. The test plants are then grown in a glasshouse under controlled conditions in a glasshouse (at 24/16° C., day/night; 14 hours light; 65% humidity) and watered twice daily. After 13 days for pre and post-emergence, the test is evaluated for the percentage damage caused to the plant. The biological activities are shown in the following table on a five point scale (5=81-100%; 4=61-80%; 3=41-60%; 2=21-40%; 1=0-20%).

[2] = tested on: Amaranthus retoflexus (AMARE); experiment: as above
Description: as §1

Setaria faberi (SETFA) [3] = experiment: as above
Description: as §1

Lolium perenne (LOLPE) [4] = experiment: as above
Description: as §1

Solanum nigrum (SOLNI) [5] = experiment: as above
Description: as §1

[6] = tested on: Echinochloa crus-galli (ECHCG); experiment: as above
Description: as §1

[7] = tested on: Ipomoea hederacea (IPOHE); experiment: Post-emergence herbicide test, glasshouse, percentage damage
Description: as §1

[8] = tested on: Amaranthus retoflexus (AMARE); experiment: as above
Description: as §1

Setaria faberi (SETFA) [9] = experiment: as above
Description: as §1

Lolium perenne (LOLPE) [10] = experiment: as above
Description: as §1

Solanum nigrum (SOLNI) [11] = experiment: as above
Description: as §1

[12] = tested on: Echinochloa crus-galli (ECHCG); experiment: as above
Description: as §1

Compound	Pre-emergence Test IPOHE percentage damage (five point scale) ([1]; rate 1000 g/ha)	Pre-emergence Test AMARE percentage damage (five point scale) ([2]; rate 1000 g/ha)	Pre-emergence Test SETFA percentage damage (five point scale) (Setaria faberi (SETFA) [3]; rate 1000 g/ha)	Pre-emergence Test LOLPE percentage damage (five point scale) (Lolium perenne (LOLPE) [4]; rate 1000 g/ha)	Pre-emergence Test SOLNI percentage damage (five point scale) (Solanum nigrum (SOLNI) [5]; rate 1000 g/ha)	Pre-emergence Test ECHCG percentage damage (five point scale) ([6]; rate 1000 g/ha)	percentage damage caused to the plant, IPOHE ([7]; 1000 g/ha)	percentage damage caused to the plant, AMARE ([8]; 1000 g/ha)	percentage damage caused to the plant, SETFA (Setaria faberi (SETFA) [9]; 1000 g/ha)	percentage damage caused to the plant, LOLPE (Lolium perenne (LOLPE) [10]; 1000 g/ha)	percentage damage caused to the plant, SOLNI (Solanum nigrum (SOLNI) [11]; 1000 g/ha)	percentage damage caused to the plant, ECHCG ([12]; 1000 g/ha)	further results
Fc1cc(Cl)cnc1Oc1c(Br)cccc1-c1cc(C(F)F)no1 [Compound A83]	1 (1=0-20%)	4 (4=61-80%)	2 (2=21-40%)	1 (1=0-20%)	1 (1=0-20%)	2 (2=21-40%)	2 (2=21-40%)	5 (5=81-100%)	4 (4=61-80%)	4 (4=61-80%)	4 (4=61-80%)	4 (4=61-80%)	–
Fc1cc(Cl)cnc1Oc1ccccc1-c1ccsc1 [Compound A70]	1 (1=0-20%)	2 (2=21-40%)	1 (1=0-20%)	1 (1=0-20%)	1 (1=0-20%)	1 (1=0-20%)	1 (1=0-20%)	3 (3=41-60%)	2 (2=21-40%)	1 (1=0-20%)	4 (4=61-80%)	3 (3=41-60%)	–
Fc1cccc(Oc2ncc(C(F)(F)F)cc2Cl)c1-c1cc(C(F)F)no1 [Compound A51]	1 (1=0-20%)	1 (1=0-20%)	1 (1=0-20%)	1 (1=0-20%)	1 (1=0-20%)	1 (1=0-20%)	1 (1=0-20%)	4 (4=61-80%)	1 (1=0-20%)	1 (1=0-20%)	5 (5=81-100%)	1 (1=0-20%)	–
Fc1cc(Cl)cnc1Oc1cccc(F)c1-c1cc(C(F)F)no1 [Compound A1, 5-[2-[(5-CHLORO-3-FLUORO-2-PYRIDYL)OXY]-6-FLUORO-PHENYL]-3-(DIFLUOROMETHYL)ISOXAZOLE]	–	–	–	–	–	–	–	–	–	–	–	–	Pre-emergence Test IPOHE percentage damage (five point scale) ([1]; rate 500 g/ha): 5 (5=81-100%); Pre-emergence Test AMARE percentage damage (five point scale) ([2]; rate 500 g/ha): 5 (5=81-100%); Pre-emergence Test SETFA percentage damage (five point scale) (Setaria faberi (SETFA) [3]; rate 500 g/ha): 5 (5=81-100%); Pre-emergence Test LOLPE percentage damage (five point scale) (Lolium perenne (LOLPE) [4]; rate 500 g/ha): 5 (5=81-100%); Pre-emergence Test SOLNI percentage damage (five point scale) (Solanum nigrum (SOLNI) [5]; rate 500 g/ha): 5 (5=81-100%); Pre-emergence Test ECHCG percentage damage (five point scale) ([6]; rate 500 g/ha): 5 (5=81-100%); percentage damage caused to the plant, IPOHE ([7]; 500 g/ha): 5 (5=81-100%); percentage damage caused to the plant, AMARE ([8]; 500 g/ha): 5 (5=81-100%); percentage damage caused to the plant, SETFA (Setaria faberi (SETFA) [9]; 500 g/ha): 5 (5=81-100%); percentage damage caused to the plant, LOLPE (Lolium perenne (LOLPE) [10]; 500 g/ha): 5 (5=81-100%); percentage damage caused to the plant, SOLNI (Solanum nigrum (SOLNI) [11]; 500 g/ha): 5 (5=81-100%); percentage damage caused to the plant, ECHCG ([12]; 500 g/ha): 5 (5=81-100%)
Fc1cc(C(F)(F)F)cnc1Oc1cccc(F)c1-c1cc(C(F)F)no1 [Compound A21]	2 (2=21-40%)	5 (5=81-100%)	5 (5=81-100%)	4 (4=61-80%)	2 (2=21-40%)	5 (5=81-100%)	3 (3=41-60%)	4 (4=61-80%)	4 (4=61-80%)	3 (3=41-60%)	3 (3=41-60%)	4 (4=61-80%)	–
Fc1cc(Cl)cnc1Oc1ccccc1-n1cc(C(F)F)nn1 [Compound A169]	–	–	–	–	–	–	–	–	–	–	–	–	Pre-emergence Test IPOHE percentage damage (five point scale) ([1]; rate 250 g/ha): 5 (5=81-100%); Pre-emergence Test AMARE percentage damage (five point scale) ([2]; rate 250 g/ha): 5 (5=81-100%); Pre-emergence Test SETFA percentage damage (five point scale) (Setaria faberi (SETFA) [3]; rate 250 g/ha): 5 (5=81-100%); Pre-emergence Test ECHCG percentage damage (five point scale) ([6]; rate 250 g/ha): 5 (5=81-100%); percentage damage caused to the plant, IPOHE ([7]; 250 g/ha): 5 (5=81-100%); percentage damage caused to the plant, AMARE ([8]; 250 g/ha): 5 (5=81-100%); percentage damage caused to the plant, SETFA (Setaria faberi (SETFA) [9]; 250 g/ha): 5 (5=81-100%); percentage damage caused to the plant, ECHCG ([12]; 250 g/ha): 5 (5=81-100%)
